The values below come from article PMC6839174, “Targeting the Formyl Peptide Receptor type 1 to prevent the adhesion of ovarian cancer cells onto mesothelium and subsequent invasion” (Journal of Experimental & Clinical Cancer Research : CR, 2019).

Non-standard residues stand in square brackets, D forms with d. Aib = CC(C)(N)C(=O)O

Details of data set [1]: method as in PMID 28465589. The conditions noted are these: mice, ref [36], cited from earlier work.
The subject of data set [2] is primary EOC cells. Nature of the data set: GFP-EOC (primary) cell adhesion onto mesothelium (HPMC monolayer). The format is cell-based, human. The conditions noted are these: three independent experiments in triplicate. Here is the method:
(§1) HPMCs (1 × 10^5 cells/well) suspended in growth medium, were seeded in 24-well plates and allowed to adhere for about 20 h until they form a confluent monolayer, prior to seeding GFP-tagged EOC cells suspended in growth medium plus diluents or 10 nM RI-3. At the indicated times, plates were accurately washed with PBS and cell-associated fluorescence was assessed by a fluorescence plate reader a fluorescence plate reader (Victor 3, Perkin Elmer), using 485 nm excitation and 535 nm emission filters. The experiments were performed three times in triplicate.

The next data set deals with EOC cells. Nature of the data set: EOC cell adhesion to and crossing of mesothelial cell monolayers (summary statement). The format is cell-based, human. The following applies: EOC cells exposed to RI-3 or desensitized with an excess of SRSRY. Here is the method: as §1
(§2) HPMCs (5 × 10^3 cells/well) suspended in growth medium, were seeded in E-16-well plates and allow to adhere for 18–20 h until they form a confluent monolayer, prior to seeding EOC cells (2 × 10^4 cells/well) in growth medium plus/minus 10 nM RI-3. When HPMCs are challenged with invading cells, there is a drop in electrical resistance within 2–4 h which is monitored in real-time as the Cell Index changes due to the rupture of mesothelium. The experiments were performed three times in quadruplicate.

Another data set deals with SKOV-3 cells. Description: HPMC invasion by SKOV-3 cells monitored in real time. Format: cell-based, Human. The conditions noted are these: 10 nM RI-3; xCELLigence cell index, slopes 20–24 h; quadruplicate representative of 3 replicates. Here is the method:
as §2

Another data set has as its system A2780 cells. Description: Adhesion of A2780 cells onto extracellular matrix proteins. Format: cell-based, Human. The conditions noted are these: A2780 cells lacking uPAR and FPR1, 10 nM RI-3; BSA, Vn, Fn, Lm or Coll; three independent experiments. Here is the method: Adhesion assays were performed using 24 multi-well plates coated with 1% BSA, 5 μg mL vitronectin (Vn), 5 μg mL fibronectin (Fn), 5 μg mL laminin (Lm) or 15 μg mL collagen (Coll) diluted in serum-free medium. Sub-confluent cells were harvested by a mild trypsinization, incubated with 10% FBS / DMEM for 1 h at 37 °C, 5% CO2, acid treated with a buffer containing 50 mM glycin-HC1, 0.1 M NaCl, pH 3 for 4 min at 22 °C, to remove receptor-bound ligands, and counted. Viable cells (2 × 10^5 cells per well) were plated in serum-free medium, in the absence or presence of 2 μg/mL R3 mAb recognizing the DI uPAR domain, 2 μg/mL399 anti-uPAR (American Diagnostica), 2 μg/mL anti-uPAR84-95 (PRIMM), 2 μg/mL anti-α-tubulin (Cell Signaling) Abs or 10 nM RI-3, and allowed to adhere for 2 h at 37 °C, 5% CO2. […] At the end of the assay, adherent cells were removed with 0.05% trypsin, and counted. The number of adherent cells was expressed as a percentage of the basal cell adhesion (CTRL). […]
Supplementary file 13046_2019_1465_MOESM1_ESM.zip: Additional file 1: Figure S1. […] The number of adherent cells was expressed as a percentage of CTRL. […] Then, A2780 cells suspended in growth medium plus/minus 10 nM RI-3 were seeded onto the mesothelial cell monolayer and invasion of mesothelium by A2780 cells was monitored in real-time as changes in Cell Index due to breaking of the monolayer integrity. […]

Data set [3] has as its system primary EOC cells. Nature of the data set: Adhesion of primary EOC cells onto matrix proteins monitored in real time (xCELLigence). Format: cell-based, human. The procedure: This assay was performed using E-16-well plates and the xCELLigence Real Time Cell Analysis technology. Bottom wells were coated with serum-free medium, 5 μg mL Vn, 5 μg mL Fn, 5 μg mL Lm or 15 μg mL Coll diluted in serum-free medium prior to seeding cells (1 × 10^4 cells/well) suspended in serum-free medium. Cells that adhere to the bottom of plates cause impedance changes which are proportional to the number of cells. The impedance value of each well was automatically monitored in real-time for at least 2 h and expressed as a cell index value. The experiments were performed three times in quadruplicate.
Fig. 6 RI-3 prevents EOC cell adhesion and subsequent invasion of mesothelium. a Adhesion of primary EOC cells on E-plates coated with 1% BSA (CTRL), 5 μg mL Vn, 5 μg mL Fn, 5 μg mL Lm or 15 μg mL Coll, with/without 10 nM RI-3, monitored in real time for 5 h by the xCELLigence system. Data represent mean ± SD from a quadruplicate experiment representative of 3 replicates. b-c Adhesion of EOC cells onto Vn in the absence or presence of 10 nM RI-3, monitored in real time for 3 h by the xCELLigence system. […] At the indicated times, cell associated fluorescence was assessed by a fluorescence plate reader. […] Cells invasion was monitored in real-time as changes in Cell Index due to breaking of the monolayer integrity (e). […]

For the substance “Ac-[dY][dR][Aib][dR]-NH2 [RI-3, retro-inverso peptide, uPAR/FPR1 antagonist]”, the body weight entry in data set [1] (versus vehicle-treated animals) is recorded as “no change of body weight”. Also, the tolerability in vivo entry in data set [1] is “well tolerated in vivo”. In addition, the visible side-effects entry in data set [1] is “no visible side-effects”. For the same substance, the “reduction of EOC cell adhesion onto mesothelium” value with primary EOC cells [2] (10 nM RI-3, after 5 min) amounted to 72%; in the data set with primary EOC cells [2] (10 nM RI-3, after 10 min), 51%; in the data set with primary EOC cells [2] (10 nM RI-3, after 20 min), 47%; with primary EOC cells [2] (10 nM RI-3, after 40 min), 46%. Besides, the “ability to cross mesothelial cell monolayers (abstract)” value in the data set on EOC cells was “losing the ability to cross them”. The “capability of SKOV-3 cells to disrupt mesothelial cell monolayer” value in the data set with SKOV-3 cells is given as “abrogated the capability of SKOV-3 cells to disrupt mesothelial cell monolayer”. Moreover, the A2780 cell adhesion result in the data set on A2780 cells is given as “ineffective”. In the data set on primary EOC cells [3] (10 nM RI-3, 5 μg mL Vn, real time, slopes 10–120 min, quadruplicate representative of 3 replicates), the “reduction of primary EOC cell adhesion onto Vn” value was 55%. Moreover, the “matrix selectivity of adhesion reduction, primary EOC cells” value in the data set with primary EOC cells [3] (10 nM RI-3, Vn vs Fn, Coll, Lm, real time 5 h) was “exclusively reduced cell adhesion onto Vn”.
